{"source": "patent US9458085B2", "about": "“Formulations” (priority 2010, dated 2016)", "key": {"[1]": {"system": "Polygonum Convolvulus (POLCO)", "assay": "Glass house adjuvant test with mesotrione, weed kill", "assay_type": "in vivo", "conditions": "mesotrione 45 g/ha + adjuvant 0.2% v/v in spray-tank, mean (standard deviation), 3 replicates"}, "[2]": {"system": "Avena Fatua (AVEFA)", "assay": "Glass house adjuvant test with pinoxaden, weed kill", "assay_type": "in vivo", "conditions": "pinoxaden 7.5 g/ha + adjuvant 0.2% by volume in spray-tank, mean (standard deviation), 3 replicates", "protocol": "(§1) The weed species Setaria Viridis (SETVI), Lolium Perenne (LOLPE), Avena Fatua (AVEFA) and Alopecurus Myosuroides (ALOMY) were grown under glass house conditions and sprayed with the herbicide pinoxaden at a rate of 7.5 grams of pesticide per hectare. Weeds were treated with pinoxaden in the absence of (E)-but-2-enedioic acid dibutyl ester (as a control) and also with (E)-but-2-enedioic acid dibutyl ester added to the spray-tank at a concentration of 0.2% by volume. After both 14 and 21 days the efficacy of the herbicide was assessed based on the percentage of the weeds that had been killed. Three replicates were used in all cases. The average percentage of weeds killed is quoted in Table 5 for each weed species either with the adjuvant or without (control). Results have been averaged across three replicates. The standard deviation for each result is shown in brackets after the result."}, "[3]": {"system": "Alopecurus Myosuroides (ALOMY)", "assay": "Glass house adjuvant test with pinoxaden, weed kill", "assay_type": "in vivo", "conditions": "pinoxaden 7.5 g/ha + adjuvant 0.2% by volume in spray-tank, mean (standard deviation), 3 replicates", "protocol": "as §1"}, "[4]": {"system": "Setaria Viridis (SETVI)", "assay": "Glass house adjuvant test with pinoxaden, weed kill", "assay_type": "in vivo", "conditions": "pinoxaden 7.5 g/ha + adjuvant 0.2% by volume in spray-tank, mean (standard deviation), 3 replicates", "protocol": "as §1"}, "[5]": {"system": "Lolium Perenne (LOLPE)", "assay": "Glass house adjuvant test with pinoxaden, weed kill", "assay_type": "in vivo", "conditions": "pinoxaden 7.5 g/ha + adjuvant 0.2% by volume in spray-tank, mean (standard deviation), 3 replicates", "protocol": "as §1"}, "[6]": {"system": "Digitaria Sanguinalis (DIGSA)", "assay": "Glass house adjuvant test with mesotrione, weed kill", "assay_type": "in vivo", "conditions": "mesotrione 45 g/ha + adjuvant 0.2% v/v in spray-tank, mean (standard deviation), 3 replicates"}, "[7]": {"system": "Amaranthus Tuberculatus (AMATU)", "assay": "Glass house adjuvant test with mesotrione, weed kill", "assay_type": "in vivo", "conditions": "mesotrione 45 g/ha + adjuvant 0.2% v/v in spray-tank, mean (standard deviation), 3 replicates", "protocol": "The weed species Polygonum Convolvulus, Digitaria Sanguinalis, Brachiaria Decumbens and Amaranthus Tuberculatus were grown under glass house conditions and sprayed with the herbicide mesotrione at rate of 45 grams of pesticide per hectare. Weeds were treated with the mesotrione in the absence of (E)-but-2-enedioic acid dibutyl ester (as a control) and also with (E)-but-2-enedioic acid dibutyl ester added to the spray-tank at a concentration of 0.2% v/v. After 14 and 21 days the efficacy of the herbicide was assessed based on the percentage of the weeds that had been killed. Three replicates were used in all cases. The performance of the solvent was assessed by averaging the three replicates at each time period and for each weed. The standard deviation for each result is shown in brackets after the average percentage weed kill."}, "[8]": {"assay": "Water solubility of solvents at 25° C. (saturated solution, chromatographic analysis)", "assay_type": "physicochemical", "protocol": "Typically, solvents which have aqueous solubilities of about (or at least) 0.1% w/w [at the relevant temperature] can dissolve appreciably in agrochemical spray tanks under normal dilution conditions [for example, temperatures of from just above freezing to 35° C.]. […] Solvents such as acetophenone are normally formulated with an oil of much lower water solubility. […] Table 2 provides water solubilities for a number of solvents at 25° C. Saturated solutions of each solvent in deionised water were prepared by leaving excess solvent in contact with water for a period of at least two weeks. After this time a sample of the water was analysed chromatographically to determine the concentration of solvent present."}, "[9]": {"system": "Brachiaria Decumbens (BRADE)", "assay": "Glass house adjuvant test with mesotrione, weed kill", "assay_type": "in vivo", "conditions": "mesotrione 45 g/ha + adjuvant 0.2% v/v in spray-tank, mean (standard deviation), 3 replicates"}, "[10]": {"assay": "Solubility of chlorothalonil in solvents at 20° C.", "assay_type": "physicochemical"}, "[11]": {"conditions": "solvent in deionised water, 25° C., contact at least two weeks"}}, "note": "Where a name gives a salt, the structure may show the parent alone. Read-outs that look alike come from different tables or passages of the source."}
{"compound": "CCCCOC(=O)/C=C/C(=O)OCCCC", "note": "[(E)-But-2-enedioic acid dibutyl ester]", "values": [{"measurement": "average percentage weed kill, POLCO", "setting": "[1]; 14 days after application", "value": "80(10) %"}, {"measurement": "average percentage weed kill, POLCO", "setting": "[1]; 21 days after application", "value": "80(10) %"}, {"measurement": "average percentage of weeds killed, AVEFA", "setting": "[2]; 14 days after application", "value": "20(10) %"}, {"measurement": "average percentage of weeds killed, AVEFA", "setting": "[2]; 21 days after application", "value": "16.7(5.8) %"}, {"measurement": "average percentage of weeds killed, ALOMY", "setting": "[3]; 14 days after application", "value": "20(17.3) %"}, {"measurement": "average percentage of weeds killed, ALOMY", "setting": "[3]; 21 days after application", "value": "33.3(15.3) %"}, {"measurement": "average percentage of weeds killed, SETVI", "setting": "[4]; 14 days after application", "value": "20(0) %"}, {"measurement": "average percentage of weeds killed, SETVI", "setting": "[4]; 21 days after application", "value": "20(10) %"}, {"measurement": "average percentage of weeds killed, LOLPE", "setting": "[5]; 14 days after application", "value": "13.3(5.8) %"}, {"measurement": "average percentage of weeds killed, LOLPE", "setting": "[5]; 21 days after application", "value": "6.7(5.8) %"}, {"measurement": "average percentage weed kill, DIGSA", "setting": "[6]; 14 days after application", "value": "36.7(2.9) %"}, {"measurement": "average percentage weed kill, DIGSA", "setting": "[6]; 21 days after application", "value": "41.7(7.6) %"}, {"measurement": "average percentage weed kill, AMATU", "setting": "[7]; 14 days after application", "value": "76.7(5.8) %"}, {"measurement": "average percentage weed kill, AMATU", "setting": "[7]; 21 days after application", "value": "94(3.6) %"}, {"measurement": "% water solubility [by weight at 25° C.]", "setting": "[8]", "value": 0.04, "unit": "% by weight"}, {"measurement": "average percentage weed kill, BRADE", "setting": "[9]; 14 days after application", "value": "43.3(5.8) %"}, {"measurement": "average percentage weed kill, BRADE", "setting": "[9]; 21 days after application", "value": "40(0) %"}]}
{"compound": "CC(=O)c1ccccc1", "note": "[Acetophenone (methyl phenyl ketone), methyl phenyl ketone]", "values": [{"measurement": "% water solubility [by weight at 25° C.]", "setting": "[8]", "value": 0.9, "unit": "% by weight"}]}
{"compound": "OCc1ccccc1", "note": "[Benzyl alcohol, benzene methanol, Benzyl alcohol]", "values": [{"measurement": "% water solubility [by weight at 25° C.]", "setting": "[8]", "value": 4.4, "unit": "% by weight"}]}
{"compound": "C1CCC2CCCCC2C1", "note": "(stereo not drawn) [Decalin, decahydronaphthalene]", "values": [{"measurement": "% water solubility [by weight at 25° C.]", "setting": "[8]; [11]", "value": 0.7, "unit": "% by weight"}]}
{"compound": "CCOC(=O)/C=C/C(=O)OCC", "note": "[Diethyl fumarate]", "values": [{"measurement": "% water solubility [by weight at 25° C.]", "setting": "[8]", "value": 0.8, "unit": "% by weight"}]}
{"compound": "C=C(C)[C@H]1CC=C(C)CC1", "note": "[Dipentene, limonene]", "values": [{"measurement": "% water solubility [by weight at 25° C.]", "setting": "[8]; [11]", "value": 0.098, "unit": "% by weight"}, {"measurement": "Chlorothalonil solubility in the solvent", "setting": "[10]", "value": 0.18, "unit": "percentage w/w"}]}
{"compound": "CCCCCCCCCCCCc1ccccc1", "note": "[Dodecylbenzene, 1-phenyldodecane]", "values": [{"measurement": "% water solubility [by weight at 25° C.]", "setting": "[8]", "value": 0.000026, "unit": "% by weight"}]}
{"compound": "c1ccc2c(c1)CCCC2", "note": "[Tetralin, tetrahydronaphthalene]", "values": [{"measurement": "% water solubility [by weight at 25° C.]", "setting": "[8]; [11]", "value": 0.18, "unit": "% by weight"}]}
{"compound": "CC(=O)OCC(COC(C)=O)OC(C)=O", "note": "[Triacetin (glycerol triacetate), glycerol triacetate]", "values": [{"measurement": "% water solubility [by weight at 25° C.]", "setting": "[8]", "value": 7.7, "unit": "% by weight"}]}
{"compound": "dimethyl heptamide [Genagen ™ 4166 (dimethyl heptamide)]", "values": [{"measurement": "% water solubility [by weight at 25° C.]", "setting": "[8]; [11]", "value": 0.7, "unit": "% by weight"}]}
